Source: ChEMBL document CHEMBL1147899, “Raman, FT-IR, NMR spectroscopic data and antimicrobial activity of bis[micro2-(benzimidazol-2-yl)-2-ethanethiolato-N,S,S-chloro-palladium(II)] dimer, [(micro2-CH2CH2NHNCC6H4)PdCl]2.C2H5OH complex” (2007)
Converted amounts (≈) assume the structure as drawn.

What was measured:
Format in all cases: functional
Rhodotorula mucilaginosa [1] = test: Antifungal activity against Rhodotorula rubra DSM 70403 after 72 hrs by disk diffusion method
Staphylococcus aureus [2] = test: Antibacterial activity against Staphylococcus aureus ATCC 6538 after 24 hrs by disk diffusion method
Debaryomyces hansenii [3] = test: Antifungal activity against Debaryomyces hansenii DSM 70238 after 48 hrs by dilution method; conditions: DSM 70238, 48 h
Kluyveromyces marxianus [4] = test: Antifungal activity against Kluyveromyces fragilis NRRL 2415 after 48 hrs by dilution method; conditions: NRRL 2415, 48 h
Rhodotorula mucilaginosa [5] = test: Antifungal activity against Rhodotorula rubra DSM 70403 after 48 hrs by dilution method; conditions: DSM 70403, 48 h
Debaryomyces hansenii [6] = test: Antifungal activity against Debaryomyces hansenii DSM 70238 after 72 hrs by disk diffusion method
Pseudomonas aeruginosa [7] = test: Antibacterial activity against Pseudomonas aeruginosa ATCC 27853 after 24 hrs by dilution method; conditions: ATCC 27853, 24 h
Kluyveromyces marxianus [8] = test: Antifungal activity against Kluyveromyces fragilis NRRL 2415 after 72 hrs by disk diffusion method
Proteus vulgaris [9] = test: Antibacterial activity against Proteus vulgaris ATCC 8427 after 24 hrs by disk diffusion method
Listeria monocytogenes [10] = test: Antibacterial activity against Listeria monocytogenes ATCC 15313 after 24 hrs by dilution method; conditions: ATCC 15313, 24 h
[11] = system: Hanseniaspora guilliermondii; test: Antifungal activity against Hanseniaspora guilliermondii DSM 3432 after 72 hrs by disk diffusion method
Bacillus cereus [12] = test: Antibacterial activity against Bacillus cereus ATCC 7064 after 24 hrs by dilution method; conditions: ATCC 7064, 24 h
Proteus vulgaris [13] = test: Antibacterial activity against Proteus vulgaris ATCC 8427 by after 24 hrs dilution method; conditions: ATCC 8427, 24 h
Candida albicans [14] = test: Antifungal activity against Candida albicans ATCC 10231 after 72 hrs by disk diffusion method
Micrococcus luteus [15] = test: Antibacterial activity against Micrococcus luteus La 2971 after 24 hrs by dilution method
Escherichia coli [16] = test: Antibacterial activity against Escherichia coli ATCC 11230 after 24 hrs by dilution method; conditions: ATCC 11230, 24 h
Staphylococcus aureus [17] = test: Antibacterial activity against Staphylococcus aureus ATCC 6538 after 24 hrs by dilution method; conditions: ATCC 6538, 24 h
Micrococcus luteus [18] = test: Antibacterial activity against Micrococcus luteus La 2971 after 24 hrs by disk diffusion method
Klebsiella pneumoniae [19] = test: Antibacterial activity against Klebsiella pneumoniae UC57 after 24 hrs by disk diffusion method
[20] = system: Mycolicibacterium smegmatis; test: Antibacterial activity against Mycobacterium smegmatis CCM 2067 after 24 hrs by dilution method; conditions: CCM 2067, 24 h
Candida albicans [21] = test: Antifungal activity against Candida albicans ATCC 10231 after 48 hrs by dilution method; conditions: ATCC 10231, 48 h
Pseudomonas aeruginosa [22] = test: Antibacterial activity against Pseudomonas aeruginosa ATCC 27853 after 24 hrs by disk diffusion method
Bacillus cereus [23] = test: Antibacterial activity against Bacillus cereus ATCC 7064 after 24 hrs by disk diffusion method
Klebsiella pneumoniae [24] = test: Antibacterial activity against Klebsiella pneumoniae UC57 after 24 hrs by dilution method
[25] = system: Hanseniaspora guilliermondii; test: Antifungal activity against Hanseniaspora guilliermondii DSM 3432 after 48 hrs by dilution method; conditions: DSM 3432, 48 h
Escherichia coli [26] = test: Antibacterial activity against Escherichia coli ATCC 11230 after 24 hrs by disk diffusion method
[27] = system: Mycolicibacterium smegmatis; test: Antibacterial activity against Mycobacterium smegmatis CCM 2067 after 24 hrs by disk diffusion method
Listeria monocytogenes [28] = test: Antibacterial activity against Listeria monocytogenes ATCC 15313 after 24 hrs by disk diffusion method
Micrococcus luteus [29] = test: Antibacterial activity against Micrococcus luteus La 2971 at 10 ug by disk diffusion method; conditions: read-out: IZ
Escherichia coli [30] = test: Antibacterial activity against Escherichia coli ATCC 11230 at 10 ug after 24 hrs by disk diffusion method; conditions: ATCC 11230, 24 h, read-out: IZ
[31] = system: Mycolicibacterium smegmatis; test: Antibacterial activity against Mycobacterium smegmatis CCM 2067 at 10 ug after 24 hrs by disk diffusion method; conditions: CCM 2067, 24 h, read-out: IZ
Klebsiella pneumoniae [32] = test: Antibacterial activity against Klebsiella pneumoniae UC57 at 10 ug after 24 hrs by disk diffusion method; conditions: read-out: IZ
Proteus vulgaris [33] = test: Antibacterial activity against Proteus vulgaris ATCC 8427 at 10 ug after 24 hrs by disk diffusion method; conditions: ATCC 8427, 24 h, read-out: IZ
Bacillus cereus [34] = test: Antibacterial activity against Bacillus cereus ATCC 7064 at 10 ug after 24 hrs by disk diffusion method; conditions: ATCC 7064, 24 h, read-out: IZ
Staphylococcus aureus [35] = test: Antibacterial activity against Staphylococcus aureus ATCC 6538 at 10 ug after 24 hrs by disk diffusion method; conditions: ATCC 6538, 24 h, read-out: IZ
Listeria monocytogenes [36] = test: Antibacterial activity against Listeria monocytogenes ATCC 15313 at 10 ug after 24 hrs by disk diffusion method; conditions: ATCC 15313, 24 h, read-out: IZ
Pseudomonas aeruginosa [37] = test: Antibacterial activity against Pseudomonas aeruginosa ATCC 27853 at 10 ug after 24 hrs by disk diffusion method; conditions: ATCC 27853, 24 h, read-out: IZ
Escherichia coli [38] = test: Antibacterial activity against Escherichia coli ATCC 11230 at 30 ug after 24 hrs by disk diffusion method; conditions: ATCC 11230, 24 h, read-out: IZ
[39] = system: Mycolicibacterium smegmatis; test: Antibacterial activity against Mycobacterium smegmatis CCM 2067 at 30 ug after 24 hrs by disk diffusion method; conditions: CCM 2067, 24 h, read-out: IZ
Proteus vulgaris [40] = test: Antibacterial activity against Proteus vulgaris ATCC 8427 at 30 ug after 24 hrs by disk diffusion method; conditions: ATCC 8427, 24 h, read-out: IZ
Micrococcus luteus [41] = test: Antibacterial activity against Micrococcus luteus La 2971 at 30 ug by disk diffusion method; conditions: read-out: IZ
Klebsiella pneumoniae [42] = test: Antibacterial activity against Klebsiella pneumoniae UC57 at 30 ug after 24 hrs by disk diffusion method; conditions: read-out: IZ
Listeria monocytogenes [43] = test: Antibacterial activity against Listeria monocytogenes ATCC 15313 at 30 ug after 24 hrs by disk diffusion method; conditions: ATCC 15313, 24 h, read-out: IZ
Bacillus cereus [44] = test: Antibacterial activity against Bacillus cereus ATCC 7064 at 30 ug after 24 hrs by disk diffusion method; conditions: ATCC 7064, 24 h, read-out: IZ
Staphylococcus aureus [45] = test: Antibacterial activity against Staphylococcus aureus ATCC 6538 at 30 ug after 24 hrs by disk diffusion method; conditions: ATCC 6538, 24 h, read-out: IZ
[46] = system: Hanseniaspora guilliermondii; test: Antifungal activity against Hanseniaspora guilliermondii DSM 3432 at 20 ug after 72 hrs by disk diffusion method; conditions: DSM 3432, 72 h, read-out: IZ
Candida albicans [47] = test: Antifungal activity against Candida albicans ATCC 10231 at 20 ug after 72 hrs by disk diffusion method; conditions: ATCC 10231, 72 h, read-out: IZ
Rhodotorula mucilaginosa [48] = test: Antifungal activity against Rhodotorula rubra DSM 70403 at 20 ug after 72 hrs by disk diffusion method; conditions: DSM 70403, 72 h, read-out: IZ
Debaryomyces hansenii [49] = test: Antifungal activity against Debaryomyces hansenii DSM 70238 at 20 ug after 72 hrs by disk diffusion method; conditions: DSM 70238, 72 h, read-out: IZ
Kluyveromyces marxianus [50] = test: Antifungal activity against Kluyveromyces fragilis NRRL 2415 at 20 ug after 72 hrs by disk diffusion method; conditions: NRRL 2415, 72 h, read-out: IZ

| Structure (SMILES) | inhibition zone (IZ) (Rhodotorula mucilaginosa [1]) | inhibition zone (IZ) (Staphylococcus aureus [2]) | MIC (Debaryomyces hansenii [3]) | MIC (Kluyveromyces marxianus [4]) | MIC (Rhodotorula mucilaginosa [5]) | inhibition zone (IZ) (Debaryomyces hansenii [6]) | MIC (Pseudomonas aeruginosa [7]) | inhibition zone (IZ) (Kluyveromyces marxianus [8]) | inhibition zone (IZ) (Proteus vulgaris [9]) | MIC (Listeria monocytogenes [10]) | inhibition zone (IZ) [11] | MIC (Bacillus cereus [12]) | MIC (Proteus vulgaris [13]) | inhibition zone (IZ) (Candida albicans [14]) | MIC (Micrococcus luteus [15]) | MIC (Escherichia coli [16]) | MIC (Staphylococcus aureus [17]) | inhibition zone (IZ) (Micrococcus luteus [18]) | inhibition zone (IZ) (Klebsiella pneumoniae [19]) | MIC [20] | further results |
| --- | --- | --- | --- | --- | --- | --- | --- | --- | --- | --- | --- | --- | --- | --- | --- | --- | --- | --- | --- | --- | --- |
| c1ccc2[nH]c(CCSSCCc3nc4ccccc4[nH]3)nc2c1 | 12 mm | 14 mm | 25 mg/L (≈ 70.5 µM) | 6.25 mg/L (≈ 17.6 µM) | 25 mg/L (≈ 70.5 µM) | 11 mm | 50 mg/L (≈ 141 µM) | 15 mm | 14 mm | 12.5 mg/L (≈ 35.3 µM) | 12 mm | 100 mg/L (≈ 282 µM) | 12.5 mg/L (≈ 35.3 µM) | 14 mm | 25 mg/L (≈ 70.5 µM) | 50 mg/L (≈ 141 µM) | 12.5 mg/L (≈ 35.3 µM) | 12 mm | 11 mm | 12.5 mg/L (≈ 35.3 µM) | MIC (Candida albicans [21]): 12.5 mg/L (≈ 35.3 µM); inhibition zone (IZ) (Pseudomonas aeruginosa [22]): 11 mm; inhibition zone (IZ) (Bacillus cereus [23]): 10 mm; MIC (Klebsiella pneumoniae [24]): 50 mg/L (≈ 141 µM); MIC [25]: 12.5 mg/L (≈ 35.3 µM); inhibition zone (IZ) (Escherichia coli [26]): 12 mm; inhibition zone (IZ) [27]: 13 mm; inhibition zone (IZ) (Listeria monocytogenes [28]): 13 mm |
| Cl.c1ccc2[nH]c(CCSSCCc3nc4ccccc4[nH]3)nc2c1 | 15 mm | 16 mm | 12.5 mg/L | 3.12 mg/L | 12.5 mg/L | 14 mm | 25 mg/L | 18 mm | 16 mm | 12.5 mg/L | 16 mm | 50 mg/L | 6.25 mg/L | 17 mm | 12.5 mg/L | 12.5 mg/L | 12.5 mg/L | 14 mm | 12 mm | 6.25 mg/L | MIC (Candida albicans [21]): 6.25 mg/L; inhibition zone (IZ) (Pseudomonas aeruginosa [22]): 12 mm; inhibition zone (IZ) (Bacillus cereus [23]): 12 mm; MIC (Klebsiella pneumoniae [24]): 25 mg/L; MIC [25]: 6.25 mg/L; inhibition zone (IZ) (Escherichia coli [26]): 14 mm; inhibition zone (IZ) [27]: 16 mm; inhibition zone (IZ) (Listeria monocytogenes [28]): 12 mm |
| CC1(C)S[C@@H]2[C@H](NC(=O)[C@H](N)c3ccccc3)C(=O)N2[C@H]1C(=O)O [AMPICILLIN] |  |  |  |  |  |  |  |  |  |  |  |  |  |  |  |  |  |  |  |  | zone of inhibition at 10 µg/disc (Micrococcus luteus [29]): 32 mm; zone of inhibition at 10 µg/disc (Escherichia coli [30]): 12 mm; zone of inhibition at 10 µg/disc [31]: 21 mm; zone of inhibition at 10 µg/disc (Klebsiella pneumoniae [32]): 14 mm; zone of inhibition at 10 µg/disc (Proteus vulgaris [33]): 16 mm; zone of inhibition at 10 µg/disc (Bacillus cereus [34]): 12 mm; zone of inhibition at 10 µg/disc (Staphylococcus aureus [35]): 16 mm; zone of inhibition at 10 µg/disc (Listeria monocytogenes [36]): 12 mm; zone of inhibition at 10 µg/disc (Pseudomonas aeruginosa [37]): 10 mm |
| CO/N=C(\C(=O)N[C@@H]1C(=O)N2C(C(=O)O)=C(COC(C)=O)CS[C@H]12)c1csc(N)n1 [CEFOTAXIME] |  |  |  |  |  |  |  |  |  |  |  |  |  |  |  |  |  |  |  |  | zone of inhibition at 30 µg/disc (Escherichia coli [38]): 10 mm; zone of inhibition at 30 µg/disc [39]: 11 mm; zone of inhibition at 30 µg/disc (Proteus vulgaris [40]): 18 mm; zone of inhibition at 30 µg/disc (Micrococcus luteus [41]): 32 mm; zone of inhibition at 30 µg/disc (Klebsiella pneumoniae [42]): 13 mm; zone of inhibition at 30 µg/disc (Listeria monocytogenes [43]): 16 mm; zone of inhibition at 30 µg/disc (Bacillus cereus [44]): 14 mm; zone of inhibition at 30 µg/disc (Staphylococcus aureus [45]): 12 mm |
| CC(=O)N1CCN(c2ccc(OCC3COC(Cn4ccnc4)(c4ccc(Cl)cc4Cl)O3)cc2)CC1 (stereo not drawn) [KETOCONAZOLE] |  |  |  |  |  |  |  |  |  |  |  |  |  |  |  |  |  |  |  |  | zone of inhibition at 20 µg/disc [46]: 24 mm; zone of inhibition at 20 µg/disc (Candida albicans [47]): 21 mm; zone of inhibition at 20 µg/disc (Rhodotorula mucilaginosa [48]): 22 mm; zone of inhibition at 20 µg/disc (Debaryomyces hansenii [49]): 14 mm; zone of inhibition at 20 µg/disc (Kluyveromyces marxianus [50]): 16 mm |
